Experimental findings from ChEMBL document CHEMBL1201862, “PubChem BioAssay data set” (2004) are described below.

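The compound was tested at five concentrations on cells cultured in 96-well plates, with a 48-hour exposure period. GI50 = concentration required for 50% inhibition of growth.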 Calls of active or inactive are those of the source. No stated cut-off is given here; in the data, active = GI50 up to about 1.1 µM and inactive = higher.

Some test systems named below: A498; HCT-116; HCT-15; HOP-62; HT-29; M14; MCF7; MDA-MB-435; NCI-H23; NCI-H460; OVCAR-5; OVCAR-8; SF-295; SNB-75; T47D; UACC-257; UACC-62; SK-OV-3; NCI-H226.
Experiment in all cases: NCI tumour cell line growth inhibition, 48 h

As to `CN(C(=O)C12C3(C(=O)O)C4C5(C(=O)O)C3C1(C(=O)O)C5C42C(=O)O)C(C)(C)C` (configuration not stated), the GI50 is > 100 µM (inactive) with A498; > 100 µM (inactive) in the test with HCT-116; more than 100 µM in the test on HCT-15; > 100 µM (inactive) with HOP-62; > 100 µM (inactive) in the test with HT-29; > 100 µM (inactive) in the test on M14. Moreover, the GI50 in the test on MCF7, in the test on MDA-MB-435, with NCI-H23, with NCI-H460, with OVCAR-5 and with OVCAR-8 was > 100 µM (inactive) in each case. In addition, the GI50 with SF-295 was > 100 µM (inactive); in the test with SNB-75, 0.442 µM (active); in the test with T47D, > 100 µM (inactive); in the test on UACC-257, > 100 µM (inactive); with UACC-62 it was > 100 µM (inactive).

For the compound `COc1ccc([N+](=O)[O-])c2c(NCCCN(C)C)c(C)c(C)nc12`, the GI50 with A498 is > 100 µM (inactive); in the test with HCT-116 it was 36.2 µM (inactive); with HCT-15, 22.4 µM; with HOP-62, 89.5 µM (inactive); in the test on HT-29 it was 42.6 µM (inactive); in the test with M14 it was > 100 µM (inactive). The GI50 in the test on MCF7 is 49.9 µM (inactive); with MDA-MB-435 it was > 100 µM (inactive); with NCI-H23 it was 44.8 µM (inactive); in the test on NCI-H460, 34.4 µM (inactive); in the test on OVCAR-5, > 100 µM (inactive); with OVCAR-8, > 100 µM (inactive). The GI50 is 90.8 µM (inactive) in the test on SF-295; > 100 µM (inactive) in the test on SK-OV-3; 36.1 µM (inactive) in the test on SNB-75; 77.3 µM (inactive) with T47D; > 100 µM (inactive) in the test on UACC-257; 81.3 µM (inactive) in the test on UACC-62.

Take `CCCN(CCC)C(=O)c1c(N2CCN(C)CC2)c2cccnc2n2c(C)cnc12`: the GI50 in the test on A498 is 78.5 µM (inactive); with HCT-116 it was > 100 µM (inactive); in the test on HCT-15, more than 100 µM; in the test with HOP-62 it was > 100 µM (inactive); with HT-29, > 100 µM (inactive); in the test on M14 it was > 100 µM (inactive). The GI50 in the test on MCF7, in the test with MDA-MB-435, in the test with NCI-H226, with NCI-H23, in the test with NCI-H460 and with OVCAR-5 was > 100 µM (inactive) in each case. Also, the GI50 in the test on OVCAR-8 is > 100 µM (inactive); in the test on SF-295 it was > 100 µM (inactive); in the test with SNB-75, > 100 µM (inactive); in the test on T47D, 14.8 µM (inactive); in the test with UACC-257 it was > 100 µM (inactive); in the test on UACC-62, > 100 µM (inactive).

Take `O=S(=O)(Nc1nc2ccccc2nc1Nc1cccc2ccccc12)c1ccccc1`: the GI50 with HCT-116 is 17.7 µM (inactive); in the test on HOP-62, 13.9 µM (inactive); in the test on M14, 62.4 µM (inactive); in the test with MCF7, > 100 µM (inactive); in the test on MDA-MB-435, > 100 µM (inactive); with NCI-H226 it was 40.6 µM (inactive). The GI50 in the test with NCI-H23 is 5.53 µM (inactive); with NCI-H460, 4.41 µM (inactive); in the test on OVCAR-5, > 100 µM (inactive); with OVCAR-8, 20.7 µM (inactive); in the test on SF-295, 6.17 µM (inactive); with SK-OV-3 it was 19.9 µM (inactive). Also, the GI50 in the test with SNB-75 is 15.5 µM (inactive); with T47D it was 5.26 µM (inactive); in the test with UACC-257 it was 39.4 µM (inactive); with UACC-62, 8.59 µM (inactive).

For `CN(C)CCNc1nc(-c2ccc3ccccc3c2)nc2[nH]cnc12`, the GI50 in the test with HCT-116 is 8.83 µM (inactive); in the test on HCT-15, 5.82 µM; with HOP-62, 10.9 µM (inactive); in the test with HT-29 it was 3.84 µM (inactive); in the test on M14, 11.4 µM (inactive); with MCF7 it was 7.33 µM (inactive). The GI50 was 11 µM (inactive) in the test on MDA-MB-435; 2.59 µM (inactive) in the test on NCI-H226; 11.7 µM (inactive) in the test on NCI-H23; 3.66 µM (inactive) in the test on NCI-H460; 13.1 µM (inactive) in the test on OVCAR-5; 10.8 µM (inactive) in the test with OVCAR-8. The GI50 in the test with SF-295 was 13.7 µM (inactive); in the test with SK-OV-3, 7.48 µM (inactive); in the test on SNB-75, 1.1 µM (active); with T47D, 12.5 µM (inactive); in the test on UACC-257, 6.9 µM (inactive); in the test with UACC-62, 10.8 µM (inactive).

Take `O=C(Oc1c(I)ccccc1=O)c1ccc([N+](=O)[O-])cc1`: the GI50 in the test with A498 is 0.409 µM (active); with HCT-116, 26.1 µM (inactive); in the test with HCT-15, 12.9 µM; in the test on HOP-62 it was 33.3 µM (inactive); with HT-29, 12.3 µM (inactive); with M14, 26.2 µM (inactive). Besides, the GI50 is 17.2 µM (inactive) with MCF7; 19.4 µM (inactive) in the test on MDA-MB-435; 42.4 µM (inactive) in the test with NCI-H23; 11.4 µM (inactive) in the test on NCI-H460; 35.5 µM (inactive) in the test with OVCAR-5; 22.3 µM (inactive) in the test on OVCAR-8. For the same compound, the GI50 in the test with SF-295 is 23.2 µM (inactive); in the test with T47D, 0.0785 µM (active); with UACC-257, 17 µM (inactive); in the test on UACC-62, 22.6 µM (inactive).

On to `COc1ccc2c(C(=O)c3c(C)n(CCN4CCOCC4)c4ccccc34)cccc2c1`, for which the GI50 in the test on A498 was 81.8 µM (inactive); in the test with HCT-116, 25.5 µM (inactive); in the test with HCT-15, 21.3 µM; in the test on HOP-62 it was 71.9 µM (inactive); with HT-29 it was 21 µM (inactive); in the test on M14 it was 22.3 µM (inactive). The GI50 was 11.3 µM (inactive) in the test with MCF7; 5.6 µM (inactive) in the test on MDA-MB-435; > 100 µM (inactive) in the test with NCI-H226; 18.8 µM (inactive) with NCI-H23; 29 µM (inactive) in the test on NCI-H460; > 100 µM (inactive) in the test with OVCAR-5. Moreover, the GI50 was 18.8 µM (inactive) in the test on OVCAR-8; 16.8 µM (inactive) in the test on SF-295; 39.6 µM (inactive) with SK-OV-3; 17.4 µM (inactive) in the test on T47D; 20.3 µM (inactive) in the test with UACC-257; 18.2 µM (inactive) in the test on UACC-62.

On to `COCC12CCC(OC)C34C5CC6(O)C(OC)CC(OC(C)=O)(C5C6OC(=O)c5ccccc5)C(C(OC)C13)C4N(C)C2` (configuration not stated), for which the GI50 with A498 is > 100 µM (inactive); with HCT-116, > 100 µM (inactive); with HCT-15, more than 100 µM; in the test with HOP-62, > 100 µM (inactive); in the test on HT-29, > 100 µM (inactive); in the test with M14 it was > 100 µM (inactive). Moreover, the GI50 in the test with MCF7, in the test on MDA-MB-435, in the test with NCI-H226, in the test with NCI-H23, with NCI-H460 and in the test on OVCAR-5 was > 100 µM (inactive) each time. The GI50 in the test on OVCAR-8 is > 100 µM (inactive); with SF-295, > 100 µM (inactive); in the test on SK-OV-3, 43 µM (inactive); in the test with T47D, > 100 µM (inactive); in the test with UACC-257, > 100 µM (inactive); in the test on UACC-62 it was > 100 µM (inactive).

For `COc1ccc(Nc2nc3cc(C(F)(F)F)ccc3n3cccc23)cc1OC`, the GI50 in the test with A498 was 14.7 µM (inactive); in the test on HCT-116 it was 12.1 µM (inactive); with HCT-15, 11.4 µM; with HOP-62, 22.3 µM (inactive); with HT-29, 8.99 µM (inactive); in the test on M14, 14.3 µM (inactive). For the same compound, the GI50 with MCF7 was 16.6 µM (inactive); in the test with MDA-MB-435, 15.7 µM (inactive); in the test on NCI-H23, 17.6 µM (inactive); in the test on NCI-H460, 10.4 µM (inactive); with OVCAR-5, 18.6 µM (inactive); with OVCAR-8, 23.3 µM (inactive). For the same compound, the GI50 in the test with SF-295 is 10.3 µM (inactive); with SK-OV-3, 27.9 µM (inactive); in the test on SNB-75, 10.6 µM (inactive); with T47D, 6.37 µM (inactive); in the test with UACC-257, 17.5 µM (inactive); in the test with UACC-62, 15.5 µM (inactive).

On to `C=C(C)C1CCC2(CO)C(O)CC3(C)C(CCC4C5(C)CCC(O)C(C)(C)C5CCC43C)C12` (configuration not stated), for which the GI50 in the test on A498 was 10.9 µM (inactive); with HCT-116, 22.4 µM (inactive); in the test with HCT-15, 11.9 µM; in the test with HOP-62, 4.16 µM (inactive); in the test with HT-29 it was 6.53 µM (inactive); in the test on M14, 18.6 µM (inactive). For the same compound, the GI50 with MCF7 was 11.6 µM (inactive); in the test with MDA-MB-435, 7.74 µM (inactive); with NCI-H226, 34.6 µM (inactive); with NCI-H23, > 10 µM (inactive); with NCI-H460, 11.8 µM (inactive); with OVCAR-5, > 100 µM (inactive). The GI50 in the test on OVCAR-8 was 3.85 µM (inactive); in the test with SF-295, 2.84 µM (inactive); with SNB-75, 3.7 µM (inactive); in the test on T47D it was 1.06 µM (active); in the test on UACC-257 it was 10.5 µM (inactive).

With `NCCO/C=C/C(N)C(=O)O` (configuration not stated) [AMINOETHOXYVINYLGLYCINE], the GI50 with HCT-116 was > 100 µM (inactive); with HCT-15, more than 100 µM; with HOP-62, > 100 µM (inactive); with HT-29 it was > 100 µM (inactive); in the test on M14 it was > 100 µM (inactive); in the test with MCF7, > 100 µM (inactive). For the same compound, the GI50 in the test with MDA-MB-435, in the test on NCI-H226, in the test on NCI-H23, in the test on NCI-H460, in the test on OVCAR-5 and in the test on OVCAR-8 was > 100 µM (inactive) each time. The GI50 in the test on SF-295, in the test on SK-OV-3, with SNB-75, in the test with T47D, with UACC-257 and in the test with UACC-62 was > 100 µM (inactive) in each case.
